Assay results from US20130251644A1, “Cyclodextrin-Based Microemulsions, and Dermatological Uses Thereof” (PRECISION DERMATOLOGY, INC., priority 2012, published 2013).

Experiments:
[1] = cited from earlier work
[2] = Solubility/dispersibility of retinol in the Labrasol-HPGCD-water systems and in water; type: physicochemical
Description: Microemulsion preparation: Any two components (examples: Labrasol®-water, HPXCD-water, or Labrasol®-HPXCD) were mixed (in different ratios) in different scintillation vials and then the third component was titrated to each vial until a clear-to-turbid or turbid-to-clear transition occurred (in simple situations). Finally wt % percentages data for each component (Labrasol®, water, and cyclodextrin) were plotted to construct the ternary phase diagram.
Cyclodextrin used: hydroxypropyl-X-cyclodextrin (X=alpha, beta, or gamma).
Any two components (examples: Labrasol®-water, cyclodextrin-water, or Labrasol®-HPBCD) were mixed (in different ratios) in different scintillation vials and then the third component was titrated to each vial until a clear-to-turbid or turbid-to-clear transition occurred (in simple situations). Finally wt % percentages data for each component (Labrosol, water, and cyclodextrin) were plotted to construct the ternary phase diagram.

- amount of retinol that can be incorporated into the cyclodextrin-based microemulsions ([2]; cyclodextrin-based microemulsion systems): greater than 1.0 wt %
- miscibility in Labrasol®-HPGCD-water microemulsion system ([2]; final retinol concentration 1.2%, clear transparent system (vials 8 and 1, FIG. 4(b), 4(c))): complete miscibility
Compound: CC1=C(/C=C/C(C)=C/C=C/C(C)=C/CO)C(C)(C)CCC1 [solid retinol, Retinol]
- miscibility in water [1]: immiscible in water
